Experimental data as given in US20110105419A1, “PHARM[…] BASED ON CO[…] OF D-METALS” (priority 2008, published 2011).
Marks after values point to notes of the source that are not given here.

What was measured:
peritoneal macrophages = assay: Intracellular calcium concentration and Ca2+ signals in peritoneal macrophages (Fura-2AM); assay type: cell-based, rat
male rats with cytopenia = assay: General blood analysis of male rats with cytopenia after application of cyclophosphane; assay type: in vivo, rat; settings: doses mg/kg: cysteine 9.5, lithium carbonate 3, C-Li 10, Fe-C-Li:C-Li 10
herpes type 2 (HSV-2) = assay: Generalized herpetic infection of white mice; assay type: in vivo; settings: mice infected with HSV-2
[1] = system: Chlamydia trachomatis, strain L-2; assay: Experimental generalized chlamydial infection of white mice; assay type: in vivo
[2] = target: T1, epidermal growth factor receptor (Homo sapiens, UniProt P00533); assay: Tyrosine kinase activity of the epidermal growth factor receptor in A431 cells (phosphotyrosine immunoblotting, densitometry); assay type: cell-based
T1 construct: cells of the human epidermoid carcinoma line A431 have an extraordinarily high level of expression of the epidermal growth factor receptor; endogenous in cells; host or cells: A431 (All-Russian Cell Culture Collection)

[3] = 3 days after cyclophosphane 100 mg/kg
[4] = 7 days after cyclophosphane 100 mg/kg
[5] = 14 days after cyclophosphane 100 mg/kg
[6] = Zovirax 15 mg/kg daily for 14 days
[7] = Zovirax 30 mg/kg daily for 14 days
[8] = mice infected with Chlamydia trachomatis L-2, 2 LD50, 20 mg/kg s.c. daily for 10 days
[9] = mice infected with Chlamydia trachomatis L-2, josamycin 25 mg/kg orally daily for 10 days
[10] = mice infected with Chlamydia trachomatis L-2, josamycin 50 mg/kg orally daily for 10 days
[11] = mice infected with Chlamydia trachomatis L-2, josamycin 100 mg/kg orally daily for 10 days

T1 sequence (P00533 25-1210): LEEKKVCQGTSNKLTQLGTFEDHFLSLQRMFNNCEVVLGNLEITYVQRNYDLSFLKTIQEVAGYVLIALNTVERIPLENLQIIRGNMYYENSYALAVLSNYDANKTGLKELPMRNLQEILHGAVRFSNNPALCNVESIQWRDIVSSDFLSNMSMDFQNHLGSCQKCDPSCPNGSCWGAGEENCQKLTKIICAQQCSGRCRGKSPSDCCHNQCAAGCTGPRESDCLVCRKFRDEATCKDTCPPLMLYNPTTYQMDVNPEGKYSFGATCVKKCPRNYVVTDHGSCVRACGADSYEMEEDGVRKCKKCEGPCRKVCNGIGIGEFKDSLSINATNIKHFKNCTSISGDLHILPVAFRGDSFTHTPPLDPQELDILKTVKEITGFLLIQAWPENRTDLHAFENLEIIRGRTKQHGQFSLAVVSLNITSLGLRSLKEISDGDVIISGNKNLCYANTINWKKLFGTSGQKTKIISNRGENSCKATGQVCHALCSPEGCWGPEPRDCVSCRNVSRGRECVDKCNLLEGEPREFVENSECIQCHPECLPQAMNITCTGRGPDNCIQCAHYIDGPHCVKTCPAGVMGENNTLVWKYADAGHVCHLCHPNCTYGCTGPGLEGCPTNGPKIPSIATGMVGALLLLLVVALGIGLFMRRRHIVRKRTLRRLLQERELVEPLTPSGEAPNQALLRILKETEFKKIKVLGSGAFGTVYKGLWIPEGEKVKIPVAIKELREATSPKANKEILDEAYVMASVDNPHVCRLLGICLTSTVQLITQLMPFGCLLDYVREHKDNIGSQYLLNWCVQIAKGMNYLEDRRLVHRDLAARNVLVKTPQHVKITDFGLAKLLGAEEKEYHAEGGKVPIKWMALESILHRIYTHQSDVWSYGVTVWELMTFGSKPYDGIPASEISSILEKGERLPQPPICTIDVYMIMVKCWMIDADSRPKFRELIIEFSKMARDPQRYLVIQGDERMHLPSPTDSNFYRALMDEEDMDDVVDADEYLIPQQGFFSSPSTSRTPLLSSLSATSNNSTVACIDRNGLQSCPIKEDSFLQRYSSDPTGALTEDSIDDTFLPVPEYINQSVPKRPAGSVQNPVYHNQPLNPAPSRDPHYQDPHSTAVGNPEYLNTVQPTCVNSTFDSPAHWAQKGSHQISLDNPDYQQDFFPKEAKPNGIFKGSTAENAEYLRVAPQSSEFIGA

SMILES	ESR (male rats with cytopenia; [3]) [mm/h]	Erythrocytes (male rats with cytopenia; [3])	Leukocytes (male rats with cytopenia; [3])	Lymphocytes (male rats with cytopenia; [3]) [%]	Reticulocytes (male rats with cytopenia; [3]) [%]	Segmented neutrophils (male rats with cytopenia; [3]) [%]	Thrombocytes (male rats with cytopenia; [3])	ESR (male rats with cytopenia; [4]) [mm/h]	Erythrocytes (male rats with cytopenia; [4])	Leukocytes (male rats with cytopenia; [4])	Lymphocytes (male rats with cytopenia; [4]) [%]	Segmented neutrophils (male rats with cytopenia; [4]) [%]	Thrombocytes (male rats with cytopenia; [4])	ESR (male rats with cytopenia; [5]) [mm/h]	Erythrocytes (male rats with cytopenia; [5])	Leukocytes (male rats with cytopenia; [5])	Lymphocytes (male rats with cytopenia; [5]) [%]	Reticulocytes (male rats with cytopenia; [5]) [%]	Segmented neutrophils (male rats with cytopenia; [5]) [%]	further results
Nc1ncnc2c1ncn2[C@@H]1O[C@H](COP(=O)(O)OP(=O)(O)OP(=O)(O)O)[C@@H](O)[C@H]1O [ATP]																				[Ca2+]i peak of the Ca2+ signal (peritoneal macrophages; rat peritoneal macrophages, normal physiological solution, 200 μM ATP, baseline 75±18 nM): 820 ± 105 nM; [Ca2+]i in the plateau phase, on average (peritoneal macrophages; rat peritoneal macrophages, normal physiological solution, 4 min after addition of 200 μM ATP): 460 ± 115 nM
N[C@@H](CS)C(=O)[O-].[Li+] [C—Li, lithium salt of cysteine]	3.3 ± 0.80	4.0 ± 0.23 10^12/l	4.38 ± 0.31* 10^9/l	45 ± 1.6	0.1 ± 0.1	42 ± 1.6	387 ± 17.4 10^9/l	3.2 ± 0.80	3.2 ± 0.18 10^12/l	4.8 ± 0.18** 10^9/l	22 ± 0.9	50.4 ± 0.6	164 ± 10.0** 10^3/l	2.7 ± 0.49	5.2 ± 0.26 10^12/l	5.6 ± 0.22** 10^9/l	72.5 ± 1.4	1.3 ± 0.3	20.3 ± 2.4	Reticulocytes (male rats with cytopenia; [4]): 1.2 ± 0.2%
O=C([O-])[O-].[Li+].[Li+] [Li2HCO3, lithium carbonate]	2.4 ± 0.42	3.7 ± 0.21 10^12/l	3.75 ± 0.46* 10^9/l	62 ± 3.8	0.118 ± 0.01	19.7 ± 3.4	256 ± 45.3 10^9/l	2.0 ± 0.36	3.6 ± 0.29 10^12/l	3.22 ± 0.11* 10^9/l	50.7 ± 1.6	33 ± 1.7	119 ± 12.0** 10^3/l	2.4 ± 0.65	4.9 ± 0.27 10^12/l	5.9 ± 0.26** 10^9/l	69.3 ± 0.9	1.4 ± 0.3	14.9 ± 2.6	Reticulocytes (male rats with cytopenia; [4]): 1.1 ± 0.1%
Nc1nc2c(ncn2COCCO)c(=O)[nH]1 [Zovirax]																				% mortality (herpes type 2 (HSV-2); [6]): 50%; % protection, (S) (herpes type 2 (HSV-2); [6]): 12.5%; Died/total in group (herpes type 2 (HSV-2); [6]): 8/16; ML (days) (T), mean life (herpes type 2 (HSV-2); [6]): 12.8 days; % mortality (herpes type 2 (HSV-2); [7]): 0%; % protection, (S) (herpes type 2 (HSV-2); [7]): 62.5%; Died/total in group (herpes type 2 (HSV-2); [7]): 0/16; ML (days) (T), mean life (herpes type 2 (HSV-2); [7]): ∞
N[C@@H](CS)C(=O)O [cysteine]	2.2 ± 0.30	3.0 ± 0.29 10^12/l	3.26 ± 0.31* 10^9/l	68 ± 2.8	0.09 ± 0.006	17.6 ± 2.1	220 ± 45.3 10^9/l	1.9 ± 0.39	3.1 ± 0.33 10^12/l	3.47 ± 0.08* 10^9/l	51.5 ± 1.3	30 ± 1.8	124 ± 11.0** 10^3/l	2.1 ± 0.73	4.7 ± 0.21 10^12/l	5.7 ± 0.22** 10^9/l	72.1 ± 1.6	1.1 ± 0.4	13.3 ± 1.9	% mortality [1, 8]: 75%; % protection, (S) [1, 8]: 0%; Died/total in group [1, 8]: 12/16; HML (T), (days), harmonic mean life [1, 8]: 5.6 days; [Ca2+]i increased to, by mobilization of calcium from the intracellular stores (peritoneal macrophages; rat peritoneal macrophages at rest, 0.015 μmol/ml): 180 ± 19 nM; activation of the EGF receptor, by a factor of ([2]; cysteine 0.015 μmol/ml, periods of action from 1 hour to 4-8 hours, ratio to control): 8-10; % mortality (herpes type 2 (HSV-2); 20 mg/kg daily for 14 days): 62.5%; Died/total in group (herpes type 2 (HSV-2); 20 mg/kg daily for 14 days): 10/16; ML (days) (T), mean life (herpes type 2 (HSV-2); 20 mg/kg daily for 14 days): 11.4 days
NCC(=O)O [glycine]																				influence on the tyrosine kinase activity of the epidermal growth factor receptor ([2]; ligands 0.015 μmol/ml, coordination compounds 0.015 nmol/ml): barely detected
CO[C@@H]1[C@@H](O[C@@H]2O[C@H](C)[C@@H](O[C@H]3C[C@@](C)(O)[C@@H](OC(=O)CC(C)C)[C@H](C)O3)[C@H](N(C)C)[C@H]2O)[C@@H](CC=O)C[C@@H](C)[C@@H](O)/C=C/C=C/C[C@@H](C)OC(=O)C[C@H]1OC(C)=O [josamycin]																				% mortality [1, 9]: 37.5%; % protection, (S) [1, 9]: 37.5%; Died/total in group [1, 9]: 6/16; HML (T), (days), harmonic mean life [1, 9]: 12.35 days; % mortality [1, 10]: 12.5%; % protection, (S) [1, 10]: 62.5%; Died/total in group [1, 10]: 2/16; HML (T), (days), harmonic mean life [1, 10]: 83.3 days; % mortality [1, 11]: 0%; % protection, (S) [1, 11]: 75%; Died/total in group [1, 11]: 0/16; HML (T), (days), harmonic mean life [1, 11]: ∞
